Drawing on PubChem BioAssay AID651788 (The Scripps Research Institute Molecular Screening Center, 2012), this text covers IC50 for 8 molecules.

Activity calls are given as the source filed them.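 The calls were made as follows: active = IC50 for SRC3 coactivator inhibition, the dose giving half inhibition, at or below 10 µM; inactive = IC50 above 10 µM.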

What is called IC50 is the concentration at which inhibition is half-maximal.

The test deals with Nuclear receptor coactivator 3 (Homo sapiens) (UniProt Q9Y6Q9). The test can be described thus: SRC3 (NCOA3) coactivator inhibitors, late-stage follow-up, cell-based, HEK293, GAL4-SRC3 luciferase, powder samples (AID 651788). The settings on record: HEK293 GAL4-SRC3 luciferase reporter, luminescence.
Nuclear receptor coactivator 3 (Homo sapiens), sequence (Q9Y6Q9 whole entry, looked up, the tested form may be a part): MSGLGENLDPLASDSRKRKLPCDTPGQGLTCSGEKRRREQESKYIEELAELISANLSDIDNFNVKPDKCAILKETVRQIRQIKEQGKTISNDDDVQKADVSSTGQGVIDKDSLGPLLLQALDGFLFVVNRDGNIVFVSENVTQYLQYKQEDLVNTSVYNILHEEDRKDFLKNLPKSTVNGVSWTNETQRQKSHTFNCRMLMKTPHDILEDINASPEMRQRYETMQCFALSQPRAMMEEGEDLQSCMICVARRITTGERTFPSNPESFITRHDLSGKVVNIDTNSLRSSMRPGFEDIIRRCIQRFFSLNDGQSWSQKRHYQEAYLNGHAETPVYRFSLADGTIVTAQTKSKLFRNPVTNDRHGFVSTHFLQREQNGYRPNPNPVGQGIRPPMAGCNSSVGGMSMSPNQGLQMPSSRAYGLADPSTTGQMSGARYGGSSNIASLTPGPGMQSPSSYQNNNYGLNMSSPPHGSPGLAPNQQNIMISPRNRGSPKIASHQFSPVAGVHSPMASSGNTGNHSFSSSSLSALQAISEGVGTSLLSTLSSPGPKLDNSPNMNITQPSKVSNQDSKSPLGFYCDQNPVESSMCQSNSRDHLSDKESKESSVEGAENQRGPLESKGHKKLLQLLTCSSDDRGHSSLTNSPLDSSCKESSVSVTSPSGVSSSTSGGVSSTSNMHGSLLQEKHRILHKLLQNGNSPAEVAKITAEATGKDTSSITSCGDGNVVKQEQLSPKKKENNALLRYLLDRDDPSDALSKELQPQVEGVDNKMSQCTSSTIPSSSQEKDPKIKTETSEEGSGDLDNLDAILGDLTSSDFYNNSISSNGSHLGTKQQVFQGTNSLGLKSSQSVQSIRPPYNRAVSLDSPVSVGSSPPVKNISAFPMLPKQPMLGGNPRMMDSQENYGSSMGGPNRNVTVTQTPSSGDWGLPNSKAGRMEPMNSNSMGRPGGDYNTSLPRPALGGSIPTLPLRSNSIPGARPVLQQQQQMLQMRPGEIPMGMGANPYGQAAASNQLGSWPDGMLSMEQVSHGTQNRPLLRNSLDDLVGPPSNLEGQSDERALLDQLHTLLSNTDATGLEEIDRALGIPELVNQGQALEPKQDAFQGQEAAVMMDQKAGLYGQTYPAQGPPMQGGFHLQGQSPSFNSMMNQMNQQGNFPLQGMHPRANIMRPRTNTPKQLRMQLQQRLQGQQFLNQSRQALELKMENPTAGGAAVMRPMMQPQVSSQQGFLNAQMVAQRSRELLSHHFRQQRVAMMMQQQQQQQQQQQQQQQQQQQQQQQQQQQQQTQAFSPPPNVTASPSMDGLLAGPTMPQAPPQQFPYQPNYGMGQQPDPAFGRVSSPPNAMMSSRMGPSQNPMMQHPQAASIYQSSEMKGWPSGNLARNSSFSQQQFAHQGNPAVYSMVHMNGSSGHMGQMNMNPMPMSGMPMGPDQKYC
Take `CN1C(=O)C2(C(C#N)=C(N)N(c3cc(Cl)cc(Cl)c3)C3=C2C(=O)CC(C)(C)C3)c2ccccc21` (stereo not drawn): the IC50 is 4.44 µM.

Regarding `O=C(COC(=O)c1ccc[nH]c1=O)Nc1ccc(N2CCCCC2)cc1`, the IC50 was 8.32 µM.

Turning to `CCCNC(=O)c1nnsc1S(=O)(=O)c1ccc(Cl)cc1`, the IC50 was 3.96 µM.

`CC(C)(C)c1ccc(-c2noc(CCC(=O)Nc3cccnc3)n2)cc1`: the IC50 was > 12 µM (inactive).

On to `CN1C(=O)C2(C(C#N)=C(N)N(c3cc(Cl)cc(Cl)c3)C3=C2C(=O)CCC3)c2ccccc21` (stereo not drawn), for which the IC50 is 5.74 µM.

Take `OCCN1CCN(C(=S)c2ccc(-c3ccccc3)cc2)CC1`: the half-maximal inhibitory concentration (IC50) is 4.97 µM.

As to `O=C(Nc1ccccc1Oc1ccccc1)c1cc([N+](=O)[O-])ccc1Cl`, the IC50 is 3.1 µM.

As for `Cc1ccc(OCC(=O)c2cc(C)n(-c3ccccc3)c2C)c([N+](=O)[O-])n1`, the IC50 entry is “inactive”.
